“And” between values parts separate entries of the source, which are not always exact repeats. Equal values may be shown once.
Columns and labels:
[1] = tested on: subjects with diabetic or idiopathic gastroparesis; assay: DIGEST I: GRS Summary Score 2 (Factor 2: nausea and vomiting); assay type: in vivo, human
From the text: A daily proprietary patient reported outcome (PRO) tool was used to assess GP symptoms, the Gastroparesis Rating Scale (GRS), developed according to the current FDA PRO guidance. The GRS covers the following cardinal symptom domains: (1) nausea, (2) vomiting, (3) postprandial fullness/early satiety, (4) bloating, (5) upper abdominal pain, (6) gastric reflux/burning, and (7) bowel movements. The GRS symptom domains may be also categorized or grouped into Factor 1 (fullness, early satiety, bloating, upper abdominal pain, and epigastric burning) and Factor 2 (nausea and vomiting).
GRS Factor 1 (also Summary Score 1) comprised fullness/early satiety, bloating, upper abdominal pain, and epigastric burning domains, whereas GRS Factor 2 (also Summary Score 2) comprised nausea and vomiting domains.
After the psychometric evaluation the GRS was summarized using two summary scores: Summary Score 1 combined the fullness/early satiety, bloating, upper abdominal pain, and epigastric burning domains and Summary Score 2 combined the nausea and vomiting domains.

[2] = tested on: subjects with diabetic or idiopathic gastroparesis; assay: DIGEST I Phase 2b: weekly GCSI-24H total score;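 further: Patient-reported daily electronic-diary symptom index rating nausea/vomiting, postprandial fullness/early satiety and bloating, averaged weekly, once-daily oral capsule taken before breakfast, baseline from 1-week pretreatment period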
From the text: The total duration of study participation for each completed subject was approximately 19 weeks including: • Screening period: up to 5 weeks, including one week baseline period; • Treatment period: 12 weeks; and • Follow-up: 2 weeks.
To qualify for entry into the Baseline Period of the study, subjects had to have: a) a composite score of 2 and <5 points on nausea, bloating, feeling excessively full after meals, and not able to finish a normal-sized meal on the GCS1-2W; b) a score of ≥3 points for at least 2 of these 4 symptoms on the GCS1-2W at Screening; and c) delayed gastric emptying as determined by either a 4-hour ^99mTc GES or GEBT. If a subject failed either the GES or GEBT at Screening, then a second gastric emptying test could have been performed during the Screening Period using the GEBT in order to qualify for the study. Subjects who were eligible for further study participation completed the 2 daily PRO measures (the Gastroparesis Rating Scale [GRS] and a daily version of the GCSI, designated the Gastroparesis Cardinal Symptoms Index—24-Hour Recall [GCS1-24H] in this study) over a 7-day period to establish baselines.
After the 1-week Baseline Period, subjects were required to have a 7-day mean score of ≥2.5 and <5 points on the GCS.1-24H at Day 1 to be eligible for entry. Eligible subjects completed the Patient Assessment of Upper Gastrointestinal Quality of Life (PAG1-QOL) questionnaire to establish baseline QOL metrics at Day 1.
During the treatment period, subjects were instructed to take 1 capsule of study drug once daily approximately 30 minutes prior to eating at approximately the same time each morning and to record the time of drug ingestion in the electronic diary. Subjects also completed the GCS1-24H and GRS on a daily basis using an electronic diary. At specified times, subjects also completed the PAG1-QOL questionnaire to assess QOL metrics and the Treatment Satisfaction Questionnaire. In addition, subjects and clinicians completed the Overall Treatment Effect (OTE) and Overall Gastroparesis Severity (OGS) instruments to serve as anchor instruments for the psychometric evaluation of the GRS measure. Subjects returned to the study center for safety and efficacy assessments as detailed in the Schedule of Study Procedures.
A total score was used to assess the GCSI PRO, which comprised a mean of 3 means symptoms domain score.
Each individual domain was evaluated. […] LS Mean Differences in each subgroup are calculated based on repeated measures mixed effect model with change from baseline in weekly GCSI-24H total score as dependent variable, treatment, gastroparesis type (diabetic vs. idiopathic), GE test time (historical vs. prospective), baseline GCSI 24H total score, time, subgroup variable, interaction effect of treatment by time, baseline GCSI 24H total score by time, treatment by subgroup variable, time by subgroup variable and treatment by time by subgroup variable as fixed effect, a random effect of subject within site, using an unstructured covariance structure. For GCSI baseline subgroup analysis, baseline 24H total score is replaced with GCSI baseline categorical variable.

[3] = 5 mg/day, Week 4, diabetic gastroparesis population
[4] = 5 mg/day, Week 4, idiopathic gastroparesis population
[5] = 5 mg/day, Week 8, diabetic gastroparesis population
[6] = 5 mg/day, Week 8, idiopathic gastroparesis population
[7] = 5 mg/day, Week 12, diabetic gastroparesis population
[8] = 5 mg/day, Week 12, idiopathic gastroparesis population
[9] = 15 mg/day, Week 4, diabetic gastroparesis population
[10] = 15 mg/day, Week 4, idiopathic gastroparesis population
[11] = 15 mg/day, Week 8, diabetic gastroparesis population
[12] = 15 mg/day, Week 8, idiopathic gastroparesis population
[13] = 15 mg/day, Week 12, diabetic gastroparesis population
[14] = 15 mg/day, Week 12, idiopathic gastroparesis population
[15] = 30 mg/day, Week 4, diabetic gastroparesis population
[16] = 30 mg/day, Week 4, idiopathic gastroparesis population
[17] = 30 mg/day, Week 8, diabetic gastroparesis population
[18] = 30 mg/day, Week 8, idiopathic gastroparesis population
[19] = 30 mg/day, Week 12, diabetic gastroparesis population
[20] = 30 mg/day, Week 12, idiopathic gastroparesis population
[21] = 5 mg/day, Week 4, diabetic patients
[22] = 5 mg/day, Week 4, idiopathic patients
[23] = 5 mg/day, Week 8, diabetic patients
[24] = 5 mg/day, Week 8, idiopathic patients
[25] = 5 mg/day, Week 12, diabetic patients
[26] = 5 mg/day, Week 12, idiopathic patients
[27] = 5 mg/day, Week 14 (off therapy), diabetic patients
[28] = 5 mg/day, Week 14 (off therapy), idiopathic patients
[29] = 15 mg/day, Week 4, diabetic patients
[30] = 15 mg/day, Week 4, idiopathic patients

Substance: 1-isopropyl-2-oxo-1,2-dihydroquinoline-3-carboxylic acid {(1S,3R,5R)-8-[(R)-2-hydroxy-3-(methanesulfonyl-methyl-amino)propyl]-8-azabicyclo[3.2.1]oct-3-yl}amide [Velusetrag]
- LS Mean Difference vs placebo, GRS Summary Score 2 (Factor 2) ([1]; 5 mg/day, Week 4, ITT): −0.1 points and −0.1 (0.12) points
- LS Mean change from baseline, GRS Summary Score 2 (Factor 2) ([1]; 5 mg/day, Week 4, ITT): 0.8 (0.08) points
- LS Mean Difference vs placebo, GRS Summary Score 2 (Factor 2) [1, 3]: −0.0 points
- LS Mean change from baseline, GRS Summary Score 2 (Factor 2) [1, 3]: −0.8 points
- LS Mean Difference vs placebo, GRS Summary Score 2 (Factor 2) [1, 4]: −0.3 (0.17) points
- LS Mean change from baseline, GRS Summary Score 2 (Factor 2) [1, 4]: −0.9 (0.12) points
- LS Mean Difference vs placebo, GRS Summary Score 2 (Factor 2) ([1]; 5 mg/day, Week 8, ITT): −0.1 (0.13) points
- LS Mean change from baseline, GRS Summary Score 2 (Factor 2) ([1]; 5 mg/day, Week 8, ITT): −0.9 (0.09) points
- LS Mean Difference vs placebo, GRS Summary Score 2 (Factor 2) [1, 5]: 0.0 points
- LS Mean change from baseline, GRS Summary Score 2 (Factor 2) [1, 5]: −0.9 points
- LS Mean Difference vs placebo, GRS Summary Score 2 (Factor 2) [1, 6]: −0.3 (0.18) points
- LS Mean change from baseline, GRS Summary Score 2 (Factor 2) [1, 6]: −0.9 (0.13) points
- LS Mean Difference vs placebo, GRS Summary Score 2 (Factor 2) ([1]; 5 mg/day, Week 12, ITT): −0.2 points and −0.2 (0.12) points
- LS Mean change from baseline, GRS Summary Score 2 (Factor 2) ([1]; 5 mg/day, Week 12, ITT): −1.0 (0.08) points
- LS Mean Difference vs placebo, GRS Summary Score 2 (Factor 2) [1, 7]: −0.1 points
- LS Mean change from baseline, GRS Summary Score 2 (Factor 2) [1, 7]: −1.0 points
- LS Mean Difference vs placebo, GRS Summary Score 2 (Factor 2) [1, 8]: −0.3 (0.17) points
- LS Mean change from baseline, GRS Summary Score 2 (Factor 2) [1, 8]: −1.0 (0.12) points
- LS Mean Difference vs placebo, GRS Summary Score 2 (Factor 2) ([1]; 15 mg/day, Week 4, ITT): −0.0 (0.12) points
- LS Mean change from baseline, GRS Summary Score 2 (Factor 2) ([1]; 15 mg/day, Week 4, ITT): −0.7 (0.09) points
- LS Mean Difference vs placebo, GRS Summary Score 2 (Factor 2) [1, 9]: 0.1 points
- LS Mean change from baseline, GRS Summary Score 2 (Factor 2) [1, 9]: −0.7 points
- LS Mean Difference vs placebo, GRS Summary Score 2 (Factor 2) [1, 10]: −0.2 (0.18) points
- LS Mean change from baseline, GRS Summary Score 2 (Factor 2) [1, 10]: −0.8 (0.13) points
- LS Mean Difference vs placebo, GRS Summary Score 2 (Factor 2) ([1]; 15 mg/day, Week 8, ITT): −0.0 (0.13) points
- LS Mean change from baseline, GRS Summary Score 2 (Factor 2) ([1]; 15 mg/day, Week 8, ITT): −0.8 (0.10) points
- LS Mean Difference vs placebo, GRS Summary Score 2 (Factor 2) [1, 11]: 0.3 points
- LS Mean change from baseline, GRS Summary Score 2 (Factor 2) [1, 11]: −0.6 points
- LS Mean Difference vs placebo, GRS Summary Score 2 (Factor 2) [1, 12]: −0.2 (0.19) points
- LS Mean change from baseline, GRS Summary Score 2 (Factor 2) [1, 12]: −0.9 (0.14) points
- LS Mean Difference vs placebo, GRS Summary Score 2 (Factor 2) ([1]; 15 mg/day, Week 12, ITT): −0.1 (0.12) points
- LS Mean change from baseline, GRS Summary Score 2 (Factor 2) ([1]; 15 mg/day, Week 12, ITT): −0.9 (0.09) points
- LS Mean Difference vs placebo, GRS Summary Score 2 (Factor 2) [1, 13]: 0.1 points
- LS Mean change from baseline, GRS Summary Score 2 (Factor 2) [1, 13]: −0.8 points
- LS Mean Difference vs placebo, GRS Summary Score 2 (Factor 2) [1, 14]: −0.3 (0.18) points
- LS Mean change from baseline, GRS Summary Score 2 (Factor 2) [1, 14]: −1.0 (0.13) points
- LS Mean Difference vs placebo, GRS Summary Score 2 (Factor 2) ([1]; 30 mg/day, Week 4, ITT): 0.1 (0.12) points
- LS Mean change from baseline, GRS Summary Score 2 (Factor 2) ([1]; 30 mg/day, Week 4, ITT): −0.6 (0.09) points
- LS Mean Difference vs placebo, GRS Summary Score 2 (Factor 2) [1, 15]: 0.1 points
- LS Mean change from baseline, GRS Summary Score 2 (Factor 2) [1, 15]: −0.6 points
- LS Mean Difference vs placebo, GRS Summary Score 2 (Factor 2) [1, 16]: −0.0 (0.17) points
- LS Mean change from baseline, GRS Summary Score 2 (Factor 2) [1, 16]: −0.7 (0.12) points
- LS Mean Difference vs placebo, GRS Summary Score 2 (Factor 2) ([1]; 30 mg/day, Week 8, ITT): −0.0 (0.13) points
- LS Mean change from baseline, GRS Summary Score 2 (Factor 2) ([1]; 30 mg/day, Week 8, ITT): −0.8 (0.09) points
- LS Mean Difference vs placebo, GRS Summary Score 2 (Factor 2) [1, 17]: 0.1 points
- LS Mean change from baseline, GRS Summary Score 2 (Factor 2) [1, 17]: −0.8 points
- LS Mean Difference vs placebo, GRS Summary Score 2 (Factor 2) [1, 18]: −0.1 (0.18) points
- LS Mean change from baseline, GRS Summary Score 2 (Factor 2) [1, 18]: −0.8 (0.13) points
- LS Mean Difference vs placebo, GRS Summary Score 2 (Factor 2) ([1]; 30 mg/day, Week 12, ITT): −0.2 (0.12) points
- LS Mean change from baseline, GRS Summary Score 2 (Factor 2) ([1]; 30 mg/day, Week 12, ITT): −1.0 (0.08) points
- LS Mean Difference vs placebo, GRS Summary Score 2 (Factor 2) [1, 19]: −0.2 points
- LS Mean change from baseline, GRS Summary Score 2 (Factor 2) [1, 19]: −1.1 points
- LS Mean Difference vs placebo, GRS Summary Score 2 (Factor 2) [1, 20]: −0.2 (0.17) points
- LS Mean change from baseline, GRS Summary Score 2 (Factor 2) [1, 20]: −0.9 (0.12) points
- LS Mean Difference vs placebo, weekly GCSI-24H total score ([2]; 5 mg/day, Week 4, ITT): −0.4 points
- LS Mean change from baseline, weekly GCSI-24H total score ([2]; 5 mg/day, Week 4, ITT): −1.5 (0.13) points
- LS Mean Difference vs placebo, weekly GCSI-24H total score ([2]; 5 mg/day, Week 4, ITT, listed as VEL): −0.4 (0.18) points
- LS Mean Difference vs placebo, weekly GCSI-24H total score [2, 21]: −0.2 (0.25) points
- LS Mean change from baseline, weekly GCSI-24H total score [2, 21]: −1.5 (0.18) points
- LS Mean Difference vs placebo, weekly GCSI-24H total score [2, 22]: −0.6 (0.26) points
- LS Mean change from baseline, weekly GCSI-24H total score [2, 22]: −1.5 (0.18) points
- LS Mean Difference vs placebo, weekly GCSI-24H total score ([2]; 5 mg/day, Week 8, ITT): −0.3 (0.20) points
- LS Mean change from baseline, weekly GCSI-24H total score ([2]; 5 mg/day, Week 8, ITT): −1.6 (0.14) points
- LS Mean Difference vs placebo, weekly GCSI-24H total score [2, 23]: −0.1 (0.27) points
- LS Mean change from baseline, weekly GCSI-24H total score [2, 23]: −1.6 (0.19) points
- LS Mean Difference vs placebo, weekly GCSI-24H total score [2, 24]: −0.6 (0.28) points
- LS Mean change from baseline, weekly GCSI-24H total score [2, 24]: −1.6 (0.20) points
- LS Mean Difference vs placebo, weekly GCSI-24H total score ([2]; 5 mg/day, Week 12, ITT): −0.3 points
- LS Mean change from baseline, weekly GCSI-24H total score ([2]; 5 mg/day, Week 12, ITT): −1.7 (0.15) points
- LS Mean Difference vs placebo, weekly GCSI-24H total score ([2]; 5 mg/day, Week 12, ITT, listed as VEL): −0.3 (0.21) points
- LS Mean Difference vs placebo, weekly GCSI-24H total score [2, 25]: −0.0 (0.29) points
- LS Mean change from baseline, weekly GCSI-24H total score [2, 25]: −1.7 (0.21) points
- LS Mean Difference vs placebo, weekly GCSI-24H total score [2, 26]: −0.6 (0.30) points
- LS Mean change from baseline, weekly GCSI-24H total score [2, 26]: −1.7 (0.21) points
- LS Mean Difference vs placebo, weekly GCSI-24H total score [2, 27]: −0.2 (0.29) points
- LS Mean change from baseline, weekly GCSI-24H total score [2, 27]: −1.7 (0.20) points
- LS Mean Difference vs placebo, weekly GCSI-24H total score [2, 28]: −0.4 (0.30) points
- LS Mean change from baseline, weekly GCSI-24H total score [2, 28]: −1.4 (0.21) points
- LS Mean Difference vs placebo, weekly GCSI-24H total score ([2]; 15 mg/day, Week 4, ITT): −0.1 (0.19) points
- LS Mean change from baseline, weekly GCSI-24H total score ([2]; 15 mg/day, Week 4, ITT): −1.2 (0.14) points
- LS Mean Difference vs placebo, weekly GCSI-24H total score [2, 29]: 0.1 points
- LS Mean change from baseline, weekly GCSI-24H total score [2, 29]: −1.2 points
- LS Mean Difference vs placebo, weekly GCSI-24H total score [2, 30]: −0.3 (0.28) points
- LS Mean change from baseline, weekly GCSI-24H total score [2, 30]: −1.2 (0.20) points
- LS Mean Difference vs placebo, weekly GCSI-24H total score ([2]; 15 mg/day, Week 8, ITT): −0.1 (0.21) points
